SMILES strings stand for the structures.

The assay has as its target T1, Trx reductase-1 (TrxR1) (Rattus norvegicus, UniProt O89049).
T1 construct: gene Txnrd1
T1 sequence (O89049 1-499): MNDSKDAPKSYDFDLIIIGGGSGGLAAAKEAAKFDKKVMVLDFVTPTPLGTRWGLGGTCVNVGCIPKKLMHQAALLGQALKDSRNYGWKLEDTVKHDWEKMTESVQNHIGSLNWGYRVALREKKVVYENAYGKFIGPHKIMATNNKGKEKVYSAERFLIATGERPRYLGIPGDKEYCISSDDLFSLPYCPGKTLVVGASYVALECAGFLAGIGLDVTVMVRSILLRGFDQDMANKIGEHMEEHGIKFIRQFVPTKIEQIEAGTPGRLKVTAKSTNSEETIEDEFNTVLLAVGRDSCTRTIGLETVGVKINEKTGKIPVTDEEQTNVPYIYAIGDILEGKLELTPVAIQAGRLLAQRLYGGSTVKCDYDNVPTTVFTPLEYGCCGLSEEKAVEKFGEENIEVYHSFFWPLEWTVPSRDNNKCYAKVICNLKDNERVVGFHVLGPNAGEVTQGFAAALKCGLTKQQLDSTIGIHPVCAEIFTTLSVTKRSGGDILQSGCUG
The experiment in a line: DTNB reduction assay with purified TrxR1, […] h pre-incubation with NADPH at pH […].
By IC50 is commonly meant the concentration at which inhibition is half-maximal. High values mean weaker potency, low ones greater potency. As to `CNC(=O)N(NS(C)(=O)=O)S(C)(=O)=O` [101MDCE, 1,2-bis(methylsulfonyl)-1-[(methylamino)carbonyl]hydrazine], inhibition was half-maximal at 9.9 ± 3.1 µM (IC50).
Under `O=NN(CCCl)C(=O)NCCCl` [BCNU, 1,3-bis(2-chloroethyl)-1-nitrosourea] stands 5.4 ± 1.4 µM; under `CNC(=O)N(N(CCCl)S(C)(=O)=O)S(C)(=O)=O` [Laromustine, 1,2-bis(methylsulfonyl)-1-(2-chloroethyl)-2-[(methylamino)carbonyl]hydrazine], 5 ± 1.1 µM.

Source of the values: publication PMC4113355, “Carbamoylating Activity Associated with the Activation of the Antitumor Agent Laromustine Inhibits Angiogenesis by Inducing ASK1-Dependent Endothelial Cell Death” (PLoS ONE, 2014).
